Measured values reported in ChEMBL document CHEMBL1201862, “PubChem BioAssay data set” (2004).
Calls of active or inactive are those of the source.

Tests used:
Cannabinoid receptor 1 [1] = molecular target: T1, Cannabinoid receptor 1 (Homo sapiens, UniProt P21554); assay: SAR analysis of agonists of the Cannabinoid Receptor 1 using an Image-Based Assay - Set 4. [Related pubchem assays (depositor defined):AID2013, AID2026]; format: functional
Cannabinoid receptor 1 [2] = molecular target: T1, Cannabinoid receptor 1; assay: SAR analysis of antagonists of the Cannabinoid Receptor 1 using an Image-Based Assay - Set 4. [Related pubchem assays (depositor defined):AID2013, AID2026]; format: functional
Coagulation factor XII = molecular target: T2, Coagulation factor XII (Homo sapiens, UniProt P00748); format: functional;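 further: activated factor XIIa alpha cleaving a fluorogenic AMC peptide substrate; inhibitor potency from loss of enzyme activity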
T2 sequence (P00748 whole entry): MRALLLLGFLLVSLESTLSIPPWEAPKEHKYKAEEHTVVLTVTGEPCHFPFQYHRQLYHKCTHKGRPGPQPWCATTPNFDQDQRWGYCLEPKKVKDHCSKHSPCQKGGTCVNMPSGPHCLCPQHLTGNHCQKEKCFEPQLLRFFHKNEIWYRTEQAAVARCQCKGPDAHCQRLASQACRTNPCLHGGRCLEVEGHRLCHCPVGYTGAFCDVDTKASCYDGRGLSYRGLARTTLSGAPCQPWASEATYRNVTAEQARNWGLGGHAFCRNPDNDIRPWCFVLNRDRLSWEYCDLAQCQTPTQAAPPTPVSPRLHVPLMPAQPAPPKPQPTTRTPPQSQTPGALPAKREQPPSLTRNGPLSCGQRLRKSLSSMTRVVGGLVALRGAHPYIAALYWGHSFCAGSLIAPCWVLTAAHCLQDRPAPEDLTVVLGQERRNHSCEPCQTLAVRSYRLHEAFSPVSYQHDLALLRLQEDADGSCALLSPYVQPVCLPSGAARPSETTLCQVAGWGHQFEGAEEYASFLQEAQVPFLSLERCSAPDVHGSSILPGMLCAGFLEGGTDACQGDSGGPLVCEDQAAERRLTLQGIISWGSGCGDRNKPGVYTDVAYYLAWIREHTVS

Streptokinase A = molecular target: T3, Streptokinase A (Streptococcus pyogenes serotype M1, UniProt P10520); assay: viability-normalized secreted streptokinase activity reduction – plasminogen activation absorbance, OD405, dose response (AID 1914); format: functional, Streptococcus pyogenes M1 GAS;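 further: secreted streptokinase activity via plasminogen activation per viability signal from cell pellet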
T3 sequence (P10520 whole entry): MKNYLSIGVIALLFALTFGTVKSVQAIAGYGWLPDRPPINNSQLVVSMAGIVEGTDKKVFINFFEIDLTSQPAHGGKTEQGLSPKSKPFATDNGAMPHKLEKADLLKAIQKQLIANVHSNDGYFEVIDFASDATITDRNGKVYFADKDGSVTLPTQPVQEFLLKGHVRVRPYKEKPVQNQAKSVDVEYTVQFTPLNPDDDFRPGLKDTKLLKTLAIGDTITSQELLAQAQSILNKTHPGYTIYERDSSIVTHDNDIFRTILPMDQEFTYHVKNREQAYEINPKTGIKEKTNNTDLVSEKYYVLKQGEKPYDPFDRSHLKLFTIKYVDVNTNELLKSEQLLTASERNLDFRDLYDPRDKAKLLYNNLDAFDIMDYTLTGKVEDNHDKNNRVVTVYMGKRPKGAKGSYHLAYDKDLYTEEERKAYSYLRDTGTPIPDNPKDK

[3] = molecular target: T4, G-protein coupled receptor 35 (Homo sapiens, UniProt Q9HC97); assay: SAR analysis of Antagonists of the GPR35 Receptor using an Image-Based Assay - Set 6. [Related pubchem assays (depositor defined):AID2013, AID2026]; format: functional
[4] = molecular target: G-protein coupled receptor 55 (Homo sapiens, UniProt Q9Y2T6); assay: SAR Analysis of Selective Antagonists of GPR55 using an Image-Based Assay - Set 4. [Related pubchem assays (depositor defined):AID2013, AID2026]; format: functional;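 further: antagonism of response to 5 µM lysophosphatidylinositol agonist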
[5] = system: Streptococcus sp. 'group A'; assay: Streptococcus pyogenes SK(-)GAS viability under kanamycin – luminescence, BacTiterGlo, confirmation, counter-screen for streptokinase expression inhibitor project, dose response (AID 1900); format: functional, organism-based
Cannabinoid receptor 2 [6] = molecular target: T5, Cannabinoid receptor 2 (Homo sapiens, UniProt P34972); assay: SAR analysis of antagonists of the Cannabinoid Receptor 2 using an Image-Based Assay - Set 3. [Related pubchem assays (depositor defined):AID2013, AID2026]; format: functional
Cannabinoid receptor 2 [7] = molecular target: T5, Cannabinoid receptor 2; assay: SAR analysis of agonists of the Cannabinoid Receptor 2 using an Image-Based Assay - Set 3. [Related pubchem assays (depositor defined):AID2013, AID2026]; format: functional
[8] = molecular target: T6, Probable nicotinate-nucleotide adenylyltransferase (Staphylococcus aureus (strain N315), UniProt P65502); format: functional, Staphylococcus aureus subsp. aureus N315;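 on IC50 Mean: confirmatory dose-response retesting of NadD inhibitor hits first found in an ultra-high-throughput screen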
Streptococcus = assay: GAS UMAA2166 growth inhibition – luminescence, BacTiterGlo, counter-screen for streptokinase expression inhibitor project, dose response (AID 1915); format: functional, organism-based;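 further: potency for reduction of bacterial viability or growth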
[9] = molecular target: T6, Probable nicotinate-nucleotide adenylyltransferase; format: functional, Staphylococcus aureus subsp. aureus N315; conditions: read-out: IC50_Mean
[10] = molecular target: T4, G-protein coupled receptor 35; assay: SAR analysis of Agonists of the GPR35 Receptor using an Image-Based Assay - Set 4. [Related pubchem assays (depositor defined):AID2013, AID2026]; format: functional
cells = format: functional
[11] = fluconazole-exposed Candida albicans growth modulators – fluorescence, retest, confirmation (AID 2467); format: functional, cell-based
[12] = HepG2 cell cytotoxicity, dose response, cytotoxicity control for non-replicating M. tuberculosis project (AID 489018); format: functional; conditions: Mycobacterium tuberculosis
[13] = THP-1 cell cytotoxicity, dose response, cytotoxicity control for non-replicating M. tuberculosis project (AID 489025); format: functional
[14] = Vero E6 cell cytotoxicity, dose response, cytotoxicity control for non-replicating M. tuberculosis project, secondary assay (AID 492998); format: functional, VeroE6; conditions: Vero C1008
[15] = NIH-3T3 fibroblast cytotoxicity, dose response, cytotoxicity control, cell-based, fluorescence, Alamar Blue, secondary assay (AID 2327); format: functional;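 further: NIH-3T3 mouse fibroblasts cultured with fluconazole at 8 µg/mL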
[16] = microbe, parasite or virus in culture; format: functional; conditions: Mycobacterium tuberculosis
Paired box protein Pax-8 = Paired box protein Pax-8 (Homo sapiens, UniProt Q06710); assay: PAX8 transcriptional activity inhibition in RMG-I – RMG-I cells, luciferase, cherry-pick, dose response (AID 687027); format: functional, cell-based;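 further: luciferase reporter driven by Pax8 target thyroperoxidase promoter measured by SteadyGlo luminescence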
[17] = luciferase reporter signal suppression in cells – H4 neuroglioma cells, luminescence, dose response (AID 1990); format: functional, cell-based
INS1 = assay: INS-1E survival protection against cytokine death – cell-based, luminescence, retest, dose response (AID 449756); format: functional; conditions: Rattus norvegicus;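 further: cell death triggered by IL-1 beta plus TNF-alpha plus IFN-gamma mixture; protective hits raise ATP signal compared with cytokine alone wells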
[18] = alpha-synuclein stem-loop luciferase translation blockers – H4 neuroglioma cells, luminescence, confirmation (AID 1988); format: functional, cell-based
[19] = molecular target: T7, DNA repair protein RAD52 homolog (Homo sapiens, UniProt P43351); format: functional, biochemical
T7 sequence (P43351 whole entry): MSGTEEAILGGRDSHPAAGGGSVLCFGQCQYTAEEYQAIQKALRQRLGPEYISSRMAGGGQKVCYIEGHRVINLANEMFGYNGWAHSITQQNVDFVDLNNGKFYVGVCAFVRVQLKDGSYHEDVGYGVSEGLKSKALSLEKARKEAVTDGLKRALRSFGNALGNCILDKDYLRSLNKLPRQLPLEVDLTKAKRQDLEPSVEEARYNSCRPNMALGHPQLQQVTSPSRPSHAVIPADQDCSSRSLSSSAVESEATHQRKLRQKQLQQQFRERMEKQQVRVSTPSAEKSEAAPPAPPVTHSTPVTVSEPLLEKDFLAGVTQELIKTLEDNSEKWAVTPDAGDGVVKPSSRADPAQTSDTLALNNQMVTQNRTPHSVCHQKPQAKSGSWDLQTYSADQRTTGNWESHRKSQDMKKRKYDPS

[20] = Luminescence Cell-Based Dose Response HTS to Identify Inhibitors of 5'UTR Stem-Loop Driven Prion Protein mRNA Translation in H4 Neuroglioblastoma Cells. [Related pubchem assays: 1827 (Project Summary), 1813 (Primary HTS)]; format: functional

T1 sequence (P21554 whole entry): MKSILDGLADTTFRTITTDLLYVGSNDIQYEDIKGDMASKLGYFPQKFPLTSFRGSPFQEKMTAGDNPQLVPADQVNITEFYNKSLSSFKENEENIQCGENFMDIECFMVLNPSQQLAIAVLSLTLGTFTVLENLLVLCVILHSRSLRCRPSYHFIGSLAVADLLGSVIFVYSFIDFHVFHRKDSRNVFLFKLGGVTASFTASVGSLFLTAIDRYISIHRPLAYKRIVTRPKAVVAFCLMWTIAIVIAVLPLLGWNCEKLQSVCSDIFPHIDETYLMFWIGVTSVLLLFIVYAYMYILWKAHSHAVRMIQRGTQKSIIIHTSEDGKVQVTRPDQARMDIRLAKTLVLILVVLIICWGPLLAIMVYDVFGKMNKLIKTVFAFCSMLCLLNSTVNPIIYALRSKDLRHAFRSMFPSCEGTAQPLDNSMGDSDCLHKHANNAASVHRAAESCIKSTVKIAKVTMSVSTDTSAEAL
T4 sequence (Q9HC97 whole entry): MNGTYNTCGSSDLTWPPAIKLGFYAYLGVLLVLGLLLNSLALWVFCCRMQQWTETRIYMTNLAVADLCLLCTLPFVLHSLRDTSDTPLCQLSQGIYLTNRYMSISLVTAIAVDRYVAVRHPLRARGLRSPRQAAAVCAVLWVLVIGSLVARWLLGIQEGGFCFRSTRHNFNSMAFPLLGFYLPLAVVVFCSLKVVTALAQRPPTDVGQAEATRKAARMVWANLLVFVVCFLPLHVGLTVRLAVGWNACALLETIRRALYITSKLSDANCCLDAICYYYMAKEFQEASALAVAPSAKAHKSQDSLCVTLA
Sequence of G-protein coupled receptor 55 (Q9Y2T6 whole entry): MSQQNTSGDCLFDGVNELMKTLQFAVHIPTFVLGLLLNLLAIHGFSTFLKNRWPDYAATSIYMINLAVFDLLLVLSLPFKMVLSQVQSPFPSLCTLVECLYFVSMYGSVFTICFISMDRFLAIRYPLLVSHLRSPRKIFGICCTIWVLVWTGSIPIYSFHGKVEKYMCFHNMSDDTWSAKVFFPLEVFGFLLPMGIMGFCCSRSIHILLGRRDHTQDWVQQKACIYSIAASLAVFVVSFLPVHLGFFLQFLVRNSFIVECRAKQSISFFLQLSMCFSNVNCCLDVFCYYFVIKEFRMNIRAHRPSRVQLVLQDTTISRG
T5 sequence (P34972 whole entry): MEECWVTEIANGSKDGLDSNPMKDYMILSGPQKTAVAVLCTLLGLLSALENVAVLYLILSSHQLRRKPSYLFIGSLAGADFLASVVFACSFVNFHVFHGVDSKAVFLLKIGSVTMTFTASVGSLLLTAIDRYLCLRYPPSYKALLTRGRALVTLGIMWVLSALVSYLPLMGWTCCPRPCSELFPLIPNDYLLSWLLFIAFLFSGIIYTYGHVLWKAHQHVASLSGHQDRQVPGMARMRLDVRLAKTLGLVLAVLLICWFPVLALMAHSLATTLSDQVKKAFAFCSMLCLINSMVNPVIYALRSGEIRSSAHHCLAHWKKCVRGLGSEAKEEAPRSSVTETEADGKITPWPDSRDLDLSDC
T6 sequence (P65502 whole entry): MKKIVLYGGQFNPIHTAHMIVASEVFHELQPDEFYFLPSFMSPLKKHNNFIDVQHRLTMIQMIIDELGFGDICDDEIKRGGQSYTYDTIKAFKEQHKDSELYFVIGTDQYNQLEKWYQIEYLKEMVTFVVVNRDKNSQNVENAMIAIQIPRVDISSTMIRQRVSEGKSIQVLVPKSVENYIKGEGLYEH
Sequence of Paired box protein Pax-8 (Q06710 whole entry): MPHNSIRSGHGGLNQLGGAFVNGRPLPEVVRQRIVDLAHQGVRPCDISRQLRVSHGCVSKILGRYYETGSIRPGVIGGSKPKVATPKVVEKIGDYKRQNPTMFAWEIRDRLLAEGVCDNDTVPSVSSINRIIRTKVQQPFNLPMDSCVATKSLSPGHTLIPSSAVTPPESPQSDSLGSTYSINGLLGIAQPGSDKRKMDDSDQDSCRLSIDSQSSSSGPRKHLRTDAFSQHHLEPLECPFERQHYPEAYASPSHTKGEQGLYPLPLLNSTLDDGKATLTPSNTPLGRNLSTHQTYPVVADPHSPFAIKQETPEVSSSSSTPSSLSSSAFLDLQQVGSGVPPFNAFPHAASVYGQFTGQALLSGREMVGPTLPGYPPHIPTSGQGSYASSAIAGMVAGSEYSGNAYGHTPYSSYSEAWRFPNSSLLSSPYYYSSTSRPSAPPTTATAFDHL

Row | SMILES | EC50 (Cannabinoid receptor 1 [1]) | IC50 (Cannabinoid receptor 1 [2]) | IC50 [3] | IC50 [4] | IC50 (Cannabinoid receptor 2 [6]) | EC50 (Cannabinoid receptor 2 [7]) | EC50 [10] | IC50 (cells) | EC50 [11] | CC50 [12] | CC50 [13] | CC50 [14] | EC50 [15] | other results
1 | Cc1ccc(-c2cc(C(=O)Nc3ccc(S(=O)(=O)Nc4cc(C)on4)cc3)c3ccccc3n2)c(C)c1 | > 32 µM (inactive) | 9.14 µM (active) | > 32 µM (inactive) | > 32 µM (inactive) | > 32 µM (inactive) | > 32 µM (inactive) | > 32 µM (inactive) | – | – | – | – | – | – | IC50 (Coagulation factor XII): > 50 µM (inactive); EC50 (Streptokinase A): 9.4 µM (active); EC50 [5]: 12.1 µM (active); IC50 [8]: 4.38 µM (active); EC50 (Streptococcus): 25.2 µM (active); IC50 [9]: 15.4 µM (active)
2 | Cc1nc(N2CCN(C(=O)c3ccc4c(c3)OCCO4)CC2)c2c3c(sc2n1)CCCC3 | > 32 µM (inactive) | 3.36 µM (active) | > 32 µM (inactive) | 21.4 µM (inactive) | 24.2 µM (inactive) | > 32 µM (inactive) | > 32 µM (inactive) | – | – | – | – | – | – | –
3 | COc1cccc(-c2nnc(NC(=O)c3ccc4ncsc4c3)o2)c1 | – | – | – | – | – | – | – | 11.7 µM (active) | 1.9 µM (active) | > 20 µM (active) | 23.5 µM (active) | 13 µM (active) | > 150 µM (inconclusive) | –
4 | Cc1cc(C)n(-c2nc(NCCN(C)C)c3c4c(sc3n2)CCCC4)n1 | – | – | – | – | – | – | – | 13.8 µM (active) | 11.3 µM (active) | 9.27 µM (active) | 12.7 µM (active) | 5.33 µM (active) | 8.65 µM (inconclusive) | CC50 [16]: 10.3 µM (active); AC50 (Paired box protein Pax-8): 22.9 µM (active); EC50 [17]: 6.98 µM (active); AC50 (INS1): 8.03 µM (active); EC50 [18]: 8.07 µM (active); AC50 [19]: 7 µM (active); EC50 [20]: 8.38 µM (active)
5 | CCN(CC)S(=O)(=O)c1ccc(NC(=O)c2cc(-c3ccccc3)nc3ccccc23)cc1 | > 32 µM (inactive) | 0.352 µM (active) | > 32 µM (inactive) | > 32 µM (inactive) | > 10.8 µM (inactive) | > 32 µM (inactive) | > 32 µM (inactive) | – | – | – | – | – | – | –
6 | O=C(COC(=O)CCc1c[nH]c2ccccc12)Nc1ccc([N+](=O)[O-])cc1 | – | – | – | – | – | – | – | 9.62 µM (active) | – | > 20 µM (active) | – | – | – | –
